Laboratory results taken from patent US9914760B2, “Methods of identifying, isolating and using odorant and aroma receptors” (Firmenich SA, priority 2013, dated 2018).

How the values were obtained:
[1] = test system: olfactory sensory neurons; assay: Ca2+ imaging of dissociated olfactory sensory neurons (Fura-2); type: cell-based, mouse; settings: 50 μM each; 6 independent neurons (FIG. 2)
From the text: The olfactory epithelium containing native olfactory neurons from a mouse was isolated and dissociated into single cells and then transferred to a dissociation buffer for a gentle mechanical and enzymatic dissociation. In order to optimize the dissociation protocol, the general procedure for making fresh dissociation buffer was followed as set forth in Araneda et al. (2004), A Pharmacological Profile of the Aldehyde Receptor Repertoire in Rat Olfactory Epithelium. Journal of Physiology: 555:743-756 with the following modifications: DNAse I instead of DNAse II, Ca2+ concentration elevated to 5 mM and pH adjusted at 7.35 at 32°. Dissociated neurons were then seeded on a coverslip allowing the screening of >2,500 cells by fluorescence microscopy. The cells were then loaded with a calcium sensitive dye (Fura-2 AM) for 30 minutes at 31° C. and transferred onto a microscope ready for screening. […]
Olfactory neurons that responded to indole and skatole were identified by stimulating receptors with 50 μm indole followed by 50 μm skatole and monitoring the intracellular Ca2+ flux indicated by changes in Fura-2 fluorescence. […] Average Fluorescence Intensity, relative fluorescent unit as a result of a ratiometric 340/380 nm recordings.

Olfr743 = Olfr743 (Mus musculus, UniProt L7N1Y2); assay: cell-based cAMP assay (HTRF), HEK293T co-transfected with Gαolf; settings: for receptor activity (cAMP, HTRF): increasing concentrations, FIGS. 5A-5D
Olfr743, sequence (P38405 2-381): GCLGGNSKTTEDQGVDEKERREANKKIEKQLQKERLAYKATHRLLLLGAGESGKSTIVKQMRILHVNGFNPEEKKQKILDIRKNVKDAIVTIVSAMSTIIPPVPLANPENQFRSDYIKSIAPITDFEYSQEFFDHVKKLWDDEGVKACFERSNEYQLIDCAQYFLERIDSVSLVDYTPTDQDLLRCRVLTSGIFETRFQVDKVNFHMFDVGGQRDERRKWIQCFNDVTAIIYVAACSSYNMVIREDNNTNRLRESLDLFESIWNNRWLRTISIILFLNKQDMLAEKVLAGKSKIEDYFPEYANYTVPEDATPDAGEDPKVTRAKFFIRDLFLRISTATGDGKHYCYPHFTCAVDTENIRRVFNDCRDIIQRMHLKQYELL
Olfr743, sequence (L7N1Y2 entry or part of it): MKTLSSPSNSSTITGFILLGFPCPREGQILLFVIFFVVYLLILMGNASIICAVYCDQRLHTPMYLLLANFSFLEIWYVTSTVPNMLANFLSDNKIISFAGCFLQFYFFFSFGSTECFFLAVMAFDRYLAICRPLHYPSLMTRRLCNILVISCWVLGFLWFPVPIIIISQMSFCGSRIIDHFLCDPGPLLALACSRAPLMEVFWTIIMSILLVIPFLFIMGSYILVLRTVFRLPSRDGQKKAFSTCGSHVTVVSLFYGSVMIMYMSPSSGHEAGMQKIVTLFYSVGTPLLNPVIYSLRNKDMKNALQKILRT
From the text: The activity of candidate mouse receptors Olfr740 (SEQ ID NO: 1 and SEQ ID NO: 2), Olfr743 (SEQ ID NO: 5 and SEQ ID NO: 6), and Olfr746 (SEQ ID NO: 37 and SEQ ID NO: 38) to both indole and skatole malodors were confirmed in cell-based cAMP assays. In FIGS. 5A and 5B, FLAG Rho-tagged (SEQ ID 18) Olfr743 (SEQ ID NO: 6) and Olfr740 (SEQ ID NO: 2) cDNA sequences were co-transfected with Gαolf (SEQ ID NO: 21) and exposed to increasing concentrations of indole (left) or skatole (right). FIGS. 5C and 5D are repeat experiments showing similar activity of Olfr740 (SEQ ID NO: 2) with Olfr743 (SEQ ID NO: 6) with indole and skatole. In FIG. 5E, the FLAG Rho-tagged (SEQ ID 18) Olfr746 (SEQ ID NO: 38) cDNA sequence was co-transfected with Gαolf (SEQ ID NO: 21) and exposed to increasing concentrations of indole or skatole. Odorant-induced activity was detected by measuring cAMP levels in the cytosol using the HTRF approach (CisBio kit). […] Co-transfection of HEK cells with Gαolf (SEQ ID NO: 21) alone (no receptor) were used as controls for non-specific activity (control). Activity is defined as the baseline corrected HTRF ratios normalized to the highest signal in the experiment. […] All three receptors show specific dose dependent activity to the malodor compounds and, as such, validate the process for identifying receptors for these compounds. Mouse receptors Olfr740 (SEQ ID NO: 1 and SEQ ID NO: 2) and Olfr743 (SEQ ID NO: 5 and SEQ ID NO: 6) were identified from isolated olfactory neurons that responded to both indole and skatole. Mouse receptor Olfr746 (SEQ ID NO: 37 and SEQ ID NO: 38) was identified in silico by database mining using Olfr740 (SEQ ID NO: 2) and Olfr743 (SEQ ID NO: 6) as query sequences. The receptors are modified at their N-terminus with the FLAG tag and the first 20 amino acids of the bovine rhodopsin receptor (SEQ ID 18), transiently expressed in HEK 293T cells, and stimulated separately with indole and skatole to confirm their identity as bona fide indole/skatole receptors. Co-expression of the human G alpha subunit Gαolf (SEQ ID NO: 21) activates the Gs transduction pathway that leads to an internal cAMP increase upon binding to the appropriate ligand.
Once identified using the procedure outlined herein, the resulting malodor receptor cell lines can be used to screen chemical libraries for compounds that modulate their activity and possibly human perception. This experiment was performed under the same conditions as in Example 4. Cells transfected with Rho-tagged (SEQ ID NO: 18) Olfr743 (SEQ ID NO: 6) were exposed to increasing concentrations of indole in the presence or absence of 300 μM 2-actetonaphthone. […] In the presence of the antagonist compound, a rightward shift of in the dose-response curve is observed resulting in a 4 fold increase in the EC50 to indole. Activity is defined as the baseline corrected HTRF ratios normalized to the highest signal in the experiment.

Olfr736 = assay: in vitro receptor response to indole or skatole; type: cell-based, mouse; settings: likely lack of cell surface expression
From the text: (§1) In another aspect, human receptor OR52N2 (SEQ ID NO: 11 and SEQ ID NO: 12) was identified because of its sequence similarity to mouse Olfr665 (SEQ ID NO: 9 and SEQ ID NO: 10), an indole/skatole receptor isolated from olfactory neurons responding to both indole and skatole (Example 6). Human receptor OR11G2 (SEQ ID NO: 13 and SEQ ID NO: 14) was identified because of its sequence similarity to mouse Olfr740 (SEQ ID NO: 1 and SEQ ID NO: 2), an indole/skatole receptor isolated from olfactory neurons responding to both indole and skatole (Example 6). Human receptor OR5AC2 (SEQ ID NO: 75 and SEQ ID NO: 76) was identified because of its sequence similarity to mouse Olfr207 (SEQ ID NO: 77 and SEQ ID NO: 78), an indole/skatole receptor isolated from olfactory neurons responding to both indole and skatole (Example 6). Human receptor OR4C15 (SEQ ID NO: 79 and SEQ ID NO: 80) was identified because of its sequence similarity to mouse Olfr1211 (SEQ ID NO: 81 and SEQ ID NO: 82), an indole/skatole receptor isolated from olfactory neurons responding to both indole and skatole (Example 6). Human receptor OR8S1 (SEQ ID NO: 83 and SEQ ID NO: 84) was identified because of its sequence similarity to mouse Olfr257 (SEQ ID NO: 85 and SEQ ID NO: 86), an indole/skatole receptor isolated from olfactory neurons responding to both indole and skatole (Example 6). Mouse receptor Olfr665 (SEQ ID NO: 9 and SEQ ID NO: 10) was identified directly from NGS data from isolated olfactory neurons responding to both indole and skatole (Example 6). Mouse receptor Olfr740 (SEQ ID NO: 1 and SEQ ID NO: 2) was identified directly from NGS data from isolated olfactory neurons responding to both indole and skatole (Example 6).

Olfr747 = assay: in vitro receptor response to indole or skatole; type: cell-based, mouse; settings: despite proper cell surface expression (immunostaining)
From the text: as §1

Olfr748 = assay: in vitro receptor response to indole or skatole; type: cell-based, mouse; settings: despite proper cell surface expression (immunostaining)
From the text: as §1

Row | Compound | activation of olfactory sensory neurons (intracellular Ca2+ flux, Fura-2 fluorescence) [1] | EC50 (Olfr743; EC50, indole alone, absence of 2-acetonaphthone) [µM] | EC50 (Olfr743; EC50, indole in the presence of 300 μM 2-acetonaphthone) [µM] | receptor activity (cAMP, HTRF) (Olfr743) | receptor response (Olfr736) | receptor response (Olfr747) | receptor response (Olfr748)
1 | c1ccc2[nH]ccc2c1 [indole] | activated | 54 | 206 | dose-dependent increase of receptor activity | failed to respond | failed to respond | failed to respond
2 | Cc1c[nH]c2ccccc12 [skatole, 3-methyl indole] | activated | – | – | dose-dependent increase of receptor activity | failed to respond | failed to respond | failed to respond
